Assay results taken from PMC3692398 (Biochemical pharmacology, 2013).
Read-outs that look alike come from different tables or passages of the source.

Assays:
human DA D3 receptor = human DA D3 receptor (Homo sapiens, UniProt P35462); assay: [3H]YM-09151-2 binding, CHOp-D3 cells; conditions: test drugs up to 10 µM; words give concentration range, 'low' = low nanomolar
hVMAT2 [1] = molecular target: T1, hVMAT2 (Homo sapiens, UniProt Q05940); assay: Inhibition of [3H]DHTB binding, HEK-hVMAT2 membranes; conditions: read-out: Inhibition of [3H]DHTB binding Ki ± sem, hVMAT2
hNET [2] = molecular target: T2, hNET (Homo sapiens, UniProt P23975); assay: cell-based; assay type: cell-based; conditions: for IC50: read-out: Inhibition of [3H]neurotransmitter uptake IC50 ± sem, hNET [3H]NE
hNET [3] = molecular target: T2, hNET; assay: Superfusion release of preloaded [3H]NE from HEK-hNET cells; assay type: cell-based; conditions: for EC50: read-out: Drug-induced release of [3H]neurotransmitter EC50 ± sem, hNET [3H]NE, superfusion, AUC; for % maximum release ± sem, hNET [3H]NE: relative to maximal AUC induced by METH (0.3 or 1 µM)
human DA D1 receptor = human DA D1 receptor (Homo sapiens, UniProt P21728); assay: [3H]SCH23390 binding, LhD1 cells; conditions: test drugs up to the maximal concentration tested (10 µM)
h5-HT1A receptor [4] = molecular target: T3, h5-HT1A receptor (Homo sapiens, UniProt P08908); assay: Stimulation of [35S]GTPγS binding, HEK-h5-HT1A membranes; assay type: biochemical; conditions: for h5-HT1A Stimulation of [35S]GTPγS binding % maximum stimulation ± sem: normalized to the maximal stimulation by 5-HT; for EC50: read-out: h5-HT1A Stimulation of [35S]GTPγS binding EC50 ± sem
T3 sequence (P08908 1-422): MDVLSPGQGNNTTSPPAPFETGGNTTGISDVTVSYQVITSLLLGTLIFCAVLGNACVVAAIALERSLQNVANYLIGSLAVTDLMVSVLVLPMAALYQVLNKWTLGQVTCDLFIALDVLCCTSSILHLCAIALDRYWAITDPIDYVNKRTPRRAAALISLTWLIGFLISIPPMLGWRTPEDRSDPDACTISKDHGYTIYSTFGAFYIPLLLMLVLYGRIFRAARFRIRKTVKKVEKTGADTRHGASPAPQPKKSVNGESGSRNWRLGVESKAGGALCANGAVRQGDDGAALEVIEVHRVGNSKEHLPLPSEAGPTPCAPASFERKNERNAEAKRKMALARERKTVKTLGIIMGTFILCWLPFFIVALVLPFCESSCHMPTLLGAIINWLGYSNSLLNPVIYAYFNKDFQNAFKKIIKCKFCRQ

human DA D2 receptor = human DA D2 receptor (Homo sapiens, UniProt P14416); assay type: binding; conditions: test drugs up to the maximal concentration tested (10 µM)
hDAT [5] = molecular target: T4, hDAT (Homo sapiens, UniProt Q01959); assay: Inhibition of [125I]RTI-55 binding, HEK-hDAT membranes; conditions: read-out: Inhibition of [125I]RTI-55 binding Ki ± sem, hDAT; HEK-hDAT membranes
h5-HT2C receptor [6] = molecular target: T5, h5-HT2C receptor (Homo sapiens, UniProt P28335); assay: Inhibition of 5-HT-stimulated IP-1 formation; assay type: cell-based; conditions: 100 nM 5-HT; normalized to maximal inhibition by SB242084 (1 µM)
T5 sequence (P28335 33-458): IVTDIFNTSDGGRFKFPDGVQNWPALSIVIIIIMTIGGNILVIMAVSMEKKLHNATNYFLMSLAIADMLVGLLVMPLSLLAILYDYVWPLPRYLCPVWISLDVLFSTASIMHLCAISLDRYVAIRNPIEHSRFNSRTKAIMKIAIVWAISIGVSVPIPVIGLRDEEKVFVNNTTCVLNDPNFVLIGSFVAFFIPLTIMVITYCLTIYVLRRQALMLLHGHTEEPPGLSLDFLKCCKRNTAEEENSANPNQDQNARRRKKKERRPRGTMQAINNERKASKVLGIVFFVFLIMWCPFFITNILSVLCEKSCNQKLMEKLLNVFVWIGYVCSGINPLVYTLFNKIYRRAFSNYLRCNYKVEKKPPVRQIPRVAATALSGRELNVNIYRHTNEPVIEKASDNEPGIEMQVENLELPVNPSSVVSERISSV

h5-HT2A receptor [7] = molecular target: T6, h5-HT2A receptor (Homo sapiens, UniProt P28223); assay: Inhibition of 5-HT-stimulated IP-1 formation; assay type: cell-based; conditions: 100 nM 5-HT; for h5-HT2A Inhibition of 5-HT-stimulated IP-1 formation % maximum inhibition ± sem: normalized to maximal inhibition by ketanserin (10 µM); for IC50: read-out: h5-HT2A Inhibition of 5-HT-stimulated IP-1 formation IC50 ± sem
h5-HT2A receptor [8] = molecular target: T6, h5-HT2A receptor; assay: [125I]DOI binding, HEK-h5-HT2A; conditions: read-out: Inhibition of radioligand binding Ki ± sem, h5-HT2A [125I]DOI
h5-HT1A receptor [9] = molecular target: T3, h5-HT1A receptor; assay: [3H]8-OH-DPAT binding, HEK-h5-HT1A; conditions: read-out: Inhibition of radioligand binding Ki ± sem, h5-HT1A [3H]8OH-DPAT
hVMAT2 [10] = molecular target: T1, hVMAT2; assay: Superfusion release of preloaded [3H]NE from HEK-hVMAT2 cells; assay type: cell-based; conditions: for EC50: read-out: Drug-induced release of [3H]NE EC50 ± sem, hVMAT2, superfusion
hNET [11] = molecular target: T2, hNET; assay: biochemical; assay type: binding; conditions: read-out: Inhibition of [125I]RTI-55 binding Ki ± sem, hNET
hSigma1 receptor = hSigma1 receptor (Homo sapiens, UniProt Q99720); assay: [3H]; assay type: binding; conditions: read-out: Inhibition of [3H]pentazocine binding Ki ± sem, hSigma1
hVMAT2 [12] = molecular target: T1, hVMAT2; assay: Inhibition of [3H]5-HT uptake, HEK-hVMAT2 membrane preparation; assay type: biochemical; conditions: read-out: Inhibition of [3H]5-HT uptake IC50 ± sem, hVMAT2; 40 nM [3H]5-HT, 2 mM MgATP
human D4.4 receptor = molecular target: T7, human D4.4 receptor (Homo sapiens, UniProt P21917); assay type: binding; conditions: test drugs up to 10 µM; words give concentration range, 'low' = low nanomolar
T7 sequence (P21917 1-419): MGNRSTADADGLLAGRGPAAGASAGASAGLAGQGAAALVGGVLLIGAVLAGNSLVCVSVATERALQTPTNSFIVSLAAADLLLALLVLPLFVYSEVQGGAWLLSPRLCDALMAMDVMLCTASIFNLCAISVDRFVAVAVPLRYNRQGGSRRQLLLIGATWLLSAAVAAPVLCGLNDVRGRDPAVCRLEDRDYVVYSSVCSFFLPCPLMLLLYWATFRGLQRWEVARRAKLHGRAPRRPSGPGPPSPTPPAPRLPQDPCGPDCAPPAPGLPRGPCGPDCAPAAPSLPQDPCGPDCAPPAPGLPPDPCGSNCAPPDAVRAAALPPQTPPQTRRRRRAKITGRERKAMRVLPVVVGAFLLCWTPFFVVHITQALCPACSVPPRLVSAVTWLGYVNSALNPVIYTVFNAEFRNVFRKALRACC

hDAT [13] = molecular target: T4, hDAT; assay: Superfusion release of preloaded [3H]DA from HEK-hDAT cells; assay type: cell-based; conditions: for EC50: read-out: Drug-induced release of [3H]neurotransmitter EC50 ± sem, hDAT [3H]DA, superfusion, AUC
hDAT [14] = molecular target: T4, hDAT; assay: Inhibition of [3H]DA uptake, intact HEK-hDAT cells; assay type: cell-based; conditions: for IC50: read-out: Inhibition of [3H]neurotransmitter uptake IC50 ± sem, hDAT [3H]DA, 20 nM [3H]DA, intact cells
hSERT [15] = molecular target: T8, hSERT (Homo sapiens, UniProt P31645); assay: Inhibition of [3H]5-HT uptake, intact HEK-hSERT cells; assay type: cell-based; conditions: for IC50: read-out: Inhibition of [3H]neurotransmitter uptake IC50 ± sem, hSERT [3H]5-HT, 20 nM [3H]5-HT, intact cells
hSERT [16] = molecular target: T8, hSERT; assay: Superfusion release of preloaded [3H]5-HT from HEK-hSERT cells; assay type: cell-based; conditions: for EC50: read-out: Drug-induced release of [3H]neurotransmitter EC50 ± sem, hSERT [3H]5-HT, superfusion, AUC
h5-HT2C receptor [17] = molecular target: T5, h5-HT2C receptor; assay type: cell-based
h5-HT2C receptor [18] = molecular target: T5, h5-HT2C receptor; assay: biochemical; assay type: binding; conditions: read-out: Inhibition of radioligand binding Ki ± sem, h5-HT2C [125I]DOI

T1 sequence (Q05940 whole entry): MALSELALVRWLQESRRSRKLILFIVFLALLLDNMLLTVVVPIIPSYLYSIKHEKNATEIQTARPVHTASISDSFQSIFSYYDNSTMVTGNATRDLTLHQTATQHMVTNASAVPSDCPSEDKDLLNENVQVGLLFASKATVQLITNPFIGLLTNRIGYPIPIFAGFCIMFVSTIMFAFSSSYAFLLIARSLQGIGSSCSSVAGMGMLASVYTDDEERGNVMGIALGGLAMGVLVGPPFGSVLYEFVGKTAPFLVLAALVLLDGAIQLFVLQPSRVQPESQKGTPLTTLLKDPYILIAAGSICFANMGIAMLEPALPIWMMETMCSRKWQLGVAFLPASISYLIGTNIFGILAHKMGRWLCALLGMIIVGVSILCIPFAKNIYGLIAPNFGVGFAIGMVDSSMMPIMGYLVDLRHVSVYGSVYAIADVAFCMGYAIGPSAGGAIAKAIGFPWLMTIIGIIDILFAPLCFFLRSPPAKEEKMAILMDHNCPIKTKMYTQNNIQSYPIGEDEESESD
T6 sequence (P28223 whole entry): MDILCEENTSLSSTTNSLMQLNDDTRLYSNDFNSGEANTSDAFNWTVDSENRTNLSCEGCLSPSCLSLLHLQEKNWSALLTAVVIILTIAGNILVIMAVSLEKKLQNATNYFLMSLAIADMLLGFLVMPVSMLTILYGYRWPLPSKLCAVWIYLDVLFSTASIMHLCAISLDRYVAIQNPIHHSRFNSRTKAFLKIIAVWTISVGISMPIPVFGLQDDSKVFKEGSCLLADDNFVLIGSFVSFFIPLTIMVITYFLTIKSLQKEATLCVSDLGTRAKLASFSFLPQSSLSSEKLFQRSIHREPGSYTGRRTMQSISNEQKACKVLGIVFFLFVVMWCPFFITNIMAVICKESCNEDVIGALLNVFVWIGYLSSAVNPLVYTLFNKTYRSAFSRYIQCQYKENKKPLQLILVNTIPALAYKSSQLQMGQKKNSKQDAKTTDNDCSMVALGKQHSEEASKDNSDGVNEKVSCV
T8 sequence (P31645 whole entry, the tested form may be a part): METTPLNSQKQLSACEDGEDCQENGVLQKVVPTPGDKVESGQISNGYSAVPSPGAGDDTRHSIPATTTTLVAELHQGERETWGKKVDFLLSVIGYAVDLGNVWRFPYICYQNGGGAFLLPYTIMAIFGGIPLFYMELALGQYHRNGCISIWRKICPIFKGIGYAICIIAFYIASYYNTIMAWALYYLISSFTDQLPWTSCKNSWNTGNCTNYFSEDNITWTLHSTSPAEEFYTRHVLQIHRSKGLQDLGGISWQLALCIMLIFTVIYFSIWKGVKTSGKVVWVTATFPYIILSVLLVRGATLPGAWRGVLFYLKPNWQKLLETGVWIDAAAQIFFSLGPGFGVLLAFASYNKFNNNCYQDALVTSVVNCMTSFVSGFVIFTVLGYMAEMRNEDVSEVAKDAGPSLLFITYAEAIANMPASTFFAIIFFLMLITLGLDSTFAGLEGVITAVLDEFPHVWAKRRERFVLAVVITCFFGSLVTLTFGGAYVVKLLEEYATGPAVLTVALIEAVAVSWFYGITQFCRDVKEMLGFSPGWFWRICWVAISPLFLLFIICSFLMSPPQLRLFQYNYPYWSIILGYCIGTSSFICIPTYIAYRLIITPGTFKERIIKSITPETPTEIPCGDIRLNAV
T4 sequence (Q01959 whole entry): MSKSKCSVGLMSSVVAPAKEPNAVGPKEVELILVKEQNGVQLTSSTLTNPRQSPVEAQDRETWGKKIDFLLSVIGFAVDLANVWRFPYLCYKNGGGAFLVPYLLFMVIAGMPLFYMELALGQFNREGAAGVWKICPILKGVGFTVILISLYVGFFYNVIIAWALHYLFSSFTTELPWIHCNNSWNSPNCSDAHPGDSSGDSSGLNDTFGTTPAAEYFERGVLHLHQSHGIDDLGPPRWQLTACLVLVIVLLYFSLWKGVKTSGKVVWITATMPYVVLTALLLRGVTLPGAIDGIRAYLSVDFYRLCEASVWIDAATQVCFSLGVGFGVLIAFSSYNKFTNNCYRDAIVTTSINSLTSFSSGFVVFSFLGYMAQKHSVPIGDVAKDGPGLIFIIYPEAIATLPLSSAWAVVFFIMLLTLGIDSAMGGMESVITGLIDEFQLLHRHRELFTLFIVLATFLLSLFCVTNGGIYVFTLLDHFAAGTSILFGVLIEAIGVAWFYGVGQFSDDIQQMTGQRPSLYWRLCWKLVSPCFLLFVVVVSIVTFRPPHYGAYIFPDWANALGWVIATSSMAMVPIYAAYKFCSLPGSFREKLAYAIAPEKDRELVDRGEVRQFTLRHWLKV
T2 sequence (P23975 whole entry, the tested form may be a part): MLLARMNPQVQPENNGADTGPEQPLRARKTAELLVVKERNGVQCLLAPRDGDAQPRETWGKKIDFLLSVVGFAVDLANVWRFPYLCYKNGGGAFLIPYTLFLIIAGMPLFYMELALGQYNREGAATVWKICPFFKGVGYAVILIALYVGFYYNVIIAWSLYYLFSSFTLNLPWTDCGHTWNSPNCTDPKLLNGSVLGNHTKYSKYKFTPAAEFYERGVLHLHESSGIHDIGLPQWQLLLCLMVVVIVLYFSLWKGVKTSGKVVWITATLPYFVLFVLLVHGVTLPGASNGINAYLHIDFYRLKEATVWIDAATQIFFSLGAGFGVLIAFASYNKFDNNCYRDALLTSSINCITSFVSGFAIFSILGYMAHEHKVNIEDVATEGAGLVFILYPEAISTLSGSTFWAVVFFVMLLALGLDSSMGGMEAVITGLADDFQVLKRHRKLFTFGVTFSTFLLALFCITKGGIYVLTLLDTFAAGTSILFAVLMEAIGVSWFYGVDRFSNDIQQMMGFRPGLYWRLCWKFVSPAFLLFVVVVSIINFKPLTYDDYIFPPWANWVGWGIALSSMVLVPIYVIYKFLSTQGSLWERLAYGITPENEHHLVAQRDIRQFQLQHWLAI
Chain of human DA D1 receptor (P21728 whole entry): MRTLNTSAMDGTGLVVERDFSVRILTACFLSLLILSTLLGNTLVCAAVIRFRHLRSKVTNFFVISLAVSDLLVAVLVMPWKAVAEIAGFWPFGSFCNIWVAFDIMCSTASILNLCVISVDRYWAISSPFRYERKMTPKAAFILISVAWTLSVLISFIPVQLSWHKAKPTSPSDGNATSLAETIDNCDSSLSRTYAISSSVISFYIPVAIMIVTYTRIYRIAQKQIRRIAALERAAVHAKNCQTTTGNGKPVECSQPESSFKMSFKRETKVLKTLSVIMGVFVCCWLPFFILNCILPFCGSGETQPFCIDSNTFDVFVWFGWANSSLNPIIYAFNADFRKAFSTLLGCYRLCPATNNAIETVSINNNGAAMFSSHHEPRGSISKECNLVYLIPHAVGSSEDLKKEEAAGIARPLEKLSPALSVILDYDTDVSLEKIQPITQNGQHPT
Chain of hSigma1 receptor (Q99720 whole entry): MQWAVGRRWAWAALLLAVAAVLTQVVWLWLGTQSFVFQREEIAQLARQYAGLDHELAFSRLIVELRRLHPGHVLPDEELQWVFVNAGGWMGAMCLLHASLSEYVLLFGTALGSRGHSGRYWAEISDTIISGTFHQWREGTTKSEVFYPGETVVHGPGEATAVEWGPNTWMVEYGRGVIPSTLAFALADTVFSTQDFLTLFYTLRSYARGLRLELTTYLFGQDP
Chain of human DA D2 receptor (P14416 whole entry): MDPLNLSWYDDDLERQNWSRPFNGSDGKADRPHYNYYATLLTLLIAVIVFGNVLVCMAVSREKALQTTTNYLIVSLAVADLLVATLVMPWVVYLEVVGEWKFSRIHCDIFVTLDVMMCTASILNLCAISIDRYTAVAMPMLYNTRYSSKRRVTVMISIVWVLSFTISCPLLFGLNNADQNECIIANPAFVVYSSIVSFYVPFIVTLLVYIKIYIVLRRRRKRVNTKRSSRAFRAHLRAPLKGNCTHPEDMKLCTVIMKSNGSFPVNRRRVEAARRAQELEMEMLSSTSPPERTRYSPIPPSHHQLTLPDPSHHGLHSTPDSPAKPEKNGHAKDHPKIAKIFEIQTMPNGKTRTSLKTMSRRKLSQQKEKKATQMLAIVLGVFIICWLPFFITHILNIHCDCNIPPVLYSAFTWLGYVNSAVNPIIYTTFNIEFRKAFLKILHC
Chain of human DA D3 receptor (P35462 whole entry): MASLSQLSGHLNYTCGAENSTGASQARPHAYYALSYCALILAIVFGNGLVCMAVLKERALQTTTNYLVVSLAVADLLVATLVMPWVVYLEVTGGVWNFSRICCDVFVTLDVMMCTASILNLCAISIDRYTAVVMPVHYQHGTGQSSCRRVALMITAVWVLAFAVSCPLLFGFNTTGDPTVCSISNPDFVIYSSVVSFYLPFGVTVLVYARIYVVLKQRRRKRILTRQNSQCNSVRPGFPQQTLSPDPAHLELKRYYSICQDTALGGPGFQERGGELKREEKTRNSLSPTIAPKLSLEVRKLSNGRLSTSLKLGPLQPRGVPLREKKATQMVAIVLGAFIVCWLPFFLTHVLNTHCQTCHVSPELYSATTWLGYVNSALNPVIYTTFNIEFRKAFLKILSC

Compound	affinity for the [3H]YM-09151-2 binding site, DA D3 receptor (human DA D3 receptor)	EC50 (hNET [3])	% maximum release ± sem, hNET [3H]NE (hNET [3])	affinity for the [3H]SCH23390 binding site, DA D1 receptor (human DA D1 receptor)	h5-HT1A Stimulation of [35S]GTPγS binding % maximum stimulation ± sem (h5-HT1A receptor [4])	EC50 (h5-HT1A receptor [4])	affinity for the [3H]YM-09151-2 binding site, DA D2 receptor (human DA D2 receptor)	Ki (hDAT [5])	h5-HT2C Inhibition of 5-HT-stimulated IP-1 formation % maximum inhibition ± sem (h5-HT2C receptor [6])	h5-HT2A Inhibition of 5-HT-stimulated IP-1 formation % maximum inhibition ± sem (h5-HT2A receptor [7])	IC50 (h5-HT2A receptor [7])	Ki (h5-HT2A receptor [8])	Ki (h5-HT1A receptor [9])	EC50 (hVMAT2 [10])	Ki (hSigma1 receptor)	IC50 (hVMAT2 [12])	affinity for the [3H]YM-09151-2 binding site, DA D4.4 receptor (human D4.4 receptor)	EC50 (hDAT [13])	IC50 (hDAT [14])	IC50 (hSERT [15])	also measured
CNC(C)Cc1ccc2c(c1)OCO2 (stereo not shown) [MDMA, 3,4-methylenedioxymethylamphetamine, reference compound]	no measurable affinity	0.57 ± 0.19 µM	116 ± 11%	no measurable affinity	65.8 ± 8.5%	35 ± 14 µM	no measurable affinity	22 ± 5.1 µM	9 ± 12%	96.3 ± 3.8%	189 ± 52 µM	8.3 ± 1.2 µM	14.1 ± 2.4 µM	114 ± 40 µM	19.4 ± 6.3 µM	5.8 ± 1.4 µM	no measurable affinity	4.8 ± 2.3 µM	0.201 ± 0.047 µM	0.109 ± 0.017 µM	Ki (hVMAT2 [1]): 661 ± 58 µM; IC50 (hNET [2]): 0.0242 µM; Ki (hNET [11]): 30.9 µM; % maximum release ± sem, hDAT [3H]DA (hDAT [13]; relative to maximal AUC induced by METH (1 or 10 µM)): 104 ± 14%; % maximum release ± sem, hSERT [3H]5-HT (hSERT [16]): 74 ±12%; EC50 (hSERT [16]): 1.04 ± 0.27 µM; h5-HT2C agonist activity, inositol monophosphate (h5-HT2C receptor [17]): full agonist with low micromolar potency
CNC(C)C(=O)c1ccccc1 (stereo not shown) [Methcathinone, methcathinone, reference compound]	no measurable affinity	0.228 ± 0.066 µM	149 ± 42%	no measurable affinity	52.8 ± 6.2%	49 ± 21 µM	no measurable affinity	3.3 ± 1.1 µM	17.5 ± 4.0%	99.63 ± 0.37%	40 ± 9.5 µM	29.2 ± 3.3 µM	29.1 ± 3.6 µM	11.6 ± 7.3 µM	117 ± 40 µM	117 ± 57 µM	no measurable affinity	3.57 ± 0.68 µM	0.144 ± 0.032 µM	13.5 ± 2.9 µM	ratio of binding Ki to uptake IC50, hNET (hNET [2]; [125I]RTI-55 Ki / [3H]NE uptake IC50): 144; IC50 (hNET [2]; 20 nM [3H]NE, intact cells): 0.0311 ± 0.0051 µM; Ki (h5-HT2C receptor [18]): 16 ± 4.2 µM; Release of [3H]NE % maximum release ± sem or range, hVMAT2 (hVMAT2 [10]): 42 ± 10%; Ki (hNET [11]; HEK-hNET membranes): 4.48 ± 0.49 µM; % maximum release ± sem, hDAT [3H]DA (hDAT [13]): 83.3 ± 4.9%; ratio of binding Ki to uptake IC50, hDAT (hDAT [14]; [125I]RTI-55 Ki / [3H]DA uptake IC50): 23; ratio of binding Ki to uptake IC50, hSERT (hSERT [15]; [125I]RTI-55 Ki / [3H]5-HT uptake IC50): > 7.4; EC50 (hSERT [16]): > 100 µM; % maximum release ± sem, hSERT [3H]5-HT (hSERT [16]; relative to maximal AUC induced by PCA (10 µM)): 21.1 ± 9.8%; h5-HT2C agonist activity, inositol monophosphate (h5-HT2C receptor [17]; data not shown): partial agonists with midmicromolar potencies
